Patent US20090181986A1, “SUBSTITUTED HETEROCYCLIC COMPOUNDS” (priority 2007, published 2009)

Target: hERG potassium channel (Homo sapiens, UniProt Q12809)
Assay: hERG screening assay (PatchXpress patch clamp, CHO cells)

hERG potassium channel, sequence (Q12809 whole entry): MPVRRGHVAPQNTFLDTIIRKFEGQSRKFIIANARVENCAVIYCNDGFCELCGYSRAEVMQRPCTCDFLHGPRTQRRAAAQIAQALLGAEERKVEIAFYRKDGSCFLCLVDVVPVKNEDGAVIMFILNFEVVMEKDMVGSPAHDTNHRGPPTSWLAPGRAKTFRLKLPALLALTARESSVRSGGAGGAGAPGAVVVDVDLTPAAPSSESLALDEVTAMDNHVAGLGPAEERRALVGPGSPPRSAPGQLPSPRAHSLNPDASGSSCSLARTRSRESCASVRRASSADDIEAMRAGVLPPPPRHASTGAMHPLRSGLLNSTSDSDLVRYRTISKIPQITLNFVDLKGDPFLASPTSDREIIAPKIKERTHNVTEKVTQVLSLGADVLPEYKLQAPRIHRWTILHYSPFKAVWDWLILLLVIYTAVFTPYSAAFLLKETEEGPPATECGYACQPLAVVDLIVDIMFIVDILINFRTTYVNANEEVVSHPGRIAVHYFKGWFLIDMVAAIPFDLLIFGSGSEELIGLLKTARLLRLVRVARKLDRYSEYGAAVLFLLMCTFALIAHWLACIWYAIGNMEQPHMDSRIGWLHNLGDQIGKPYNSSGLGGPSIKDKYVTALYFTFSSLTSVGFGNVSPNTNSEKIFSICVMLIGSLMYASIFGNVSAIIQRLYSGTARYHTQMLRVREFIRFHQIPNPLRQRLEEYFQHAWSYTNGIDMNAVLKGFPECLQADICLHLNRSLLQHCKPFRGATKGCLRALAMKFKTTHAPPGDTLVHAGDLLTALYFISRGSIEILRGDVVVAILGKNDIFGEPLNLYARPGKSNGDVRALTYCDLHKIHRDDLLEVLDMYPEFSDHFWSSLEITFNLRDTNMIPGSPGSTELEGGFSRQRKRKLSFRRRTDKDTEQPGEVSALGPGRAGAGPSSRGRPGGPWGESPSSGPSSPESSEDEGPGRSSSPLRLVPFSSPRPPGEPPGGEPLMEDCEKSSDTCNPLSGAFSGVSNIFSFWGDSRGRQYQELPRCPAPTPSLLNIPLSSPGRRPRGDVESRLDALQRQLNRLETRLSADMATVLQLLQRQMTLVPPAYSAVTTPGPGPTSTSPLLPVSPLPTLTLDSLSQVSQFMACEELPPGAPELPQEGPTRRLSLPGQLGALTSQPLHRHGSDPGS

Row | SMILES | hERG Patch Clamp hERG % blk (1 μM test cmpd) [%] | hERG Patch Clamp hERG % blk (10 μM test cmpd) [%]
1 | CC1=C(C(=O)OCc2ccccc2)C(c2ccc3ccccc3c2)C2=C(CCCC2=O)N1 (centres unmarked) [PT-320, benzyl 2-methyl-4-(naphthalen-2-yl)-5-oxo-1,4,5,6,7,8-hexahydroquinoline-3-carboxylate] | 10 | 10
2 | CC1=C(C(=O)OCc2ccccc2)C(c2ccc3ccccc3c2)c2c(C)n[nH]c2N1 (centres unmarked) [PT-325, benzyl 3,6-dimethyl-4-(naphthalen-2-yl)-4,7-dihydro-1H-pyrazolo[3,4-b]pyridine-5-carboxylate] | 10 | 36
3 | CC1=C(C(=O)OCc2ccccc2)C(c2ccccc2N2CCN(S(C)(=O)=O)CC2)n2nnnc2N1 (centres unmarked) [PT-339, benzyl 5-methyl-7-(2-(4-(methylsulfonyl)piperazin-1-yl)phenyl)-4,7-dihydrotetrazolo[1,5-a]pyrimidine-6-carboxylate] | 11.5 | 43.5
4 | CC1=C(C(=O)OCc2ccccc2)C(c2ccccc2N2CCN(C)CC2)n2nnnc2N1 (centres unmarked) [PT-340, benzyl 5-methyl-7-(2-(4-methylpiperazin-1-yl)phenyl)-4,7-dihydrotetrazolo[1,5-a]pyrimidine-6-carboxylate] | 57 | 93.5
5 | CC1=C(C(=O)OCc2ccccc2)C(c2ccccc2N2CCCCC2)n2nnnc2N1 (centres unmarked) [PT-342, benzyl 5-methyl-7-(2-(piperidin-1-yl)phenyl)-4,7-dihydrotetrazolo[1,5-a]pyrimidine-6-carboxylate] | 10 | 47.5
6 | CC1=C(C(=O)OCc2ccccc2)C(c2ccccc2-c2cccc(NS(C)(=O)=O)c2)n2nnnc2N1 (centres unmarked) [PT-348, benzyl 5-methyl-7-(3′-(methylsulfonamido)biphenyl-2-yl)-4,7-dihydrotetrazolo[1,5-a]pyrimidine-6-carboxylate] | 10 | 38.5
7 | CC1=C(C(=O)OCc2ccccc2)C(c2nccs2)n2nccc2N1 (centres unmarked) [PT-363, benzyl 5-methyl-7-(thiazol-2-yl)-4,7-dihydropyrazolo[1,5-a]pyrimidine-6-carboxylate] | 10 | 19.5
8 | CC1=C(C(=O)OCc2ccccc2)C(c2nccs2)n2nnnc2N1 (centres unmarked) [PT-364, benzyl 5-methyl-7-(thiazol-2-yl)-4,7-dihydrotetrazolo[1,5-a]pyrimidine-6-carboxylate] | 10 | 17.5
9 | CC1=C(C(=O)OCc2ccccc2)C(c2nccs2)c2cn[nH]c2N1 (centres unmarked) [PT-369, benzyl 6-methyl-4-(thiazol-2-yl)-4,7-dihydro-1H-pyrazolo[3,4-b]pyridine-5-carboxylate] | 10 | 25
10 | CCS(=O)(=O)N1CCN(c2cccc(OC)c2C2C(C(=O)OCc3ccccc3)=C(C)Nc3nnnn32)CC1 (centres unmarked) [PT-378, benzyl 7-(2-(4-(ethylsulfonyl)piperazin-1-yl)-6-methoxyphenyl)-5-methyl-4,7-dihydrotetrazolo[1,5-a]pyrimidine-6-carboxylate] | 10 | 41.5
11 | CC1=C(C(=O)OCc2ccccc2)C(c2c(Br)sc3ccccc23)n2nnnc2N1 (centres unmarked) [PT-386, benzyl 7-(2-bromobenzo[b]thiophen-3-yl)-5-methyl-4,7-dihydrotetrazolo[1,5-a]pyrimidine-6-carboxylate] | 10 | 16.5
12 | CC1=C(C(=O)OCc2ccccc2)C(c2occc2-c2ccc(F)cc2)n2nnnc2N1 (centres unmarked) [PT-396, benzyl 7-(3-(4-fluorophenyl)furan-2-yl)-5-methyl-4,7-dihydrotetrazolo[1,5-a]pyrimidine-6-carboxylate] | 10 | 32
13 | CC1=C(C(=O)OCc2ccccc2)C(c2sccc2-c2ccc(F)cc2)n2nnnc2N1 (centres unmarked) [PT-397, benzyl 7-(3-(4-fluorophenyl)thiophen-2-yl)-5-methyl-4,7-dihydrotetrazolo[1,5-a]pyrimidine-6-carboxylate] | 10 | 25
14 | CC(=O)c1ccc(-c2ccccc2C2C(C(=O)OCc3ccccc3)=C(C)Nc3nnnn32)cc1 (centres unmarked) [PT-415, benzyl 7-(4′-acetylbiphenyl-2-yl)-5-methyl-4,7-dihydrotetrazolo[1,5-a]pyrimidine-6-carboxylate] | 10.5 | 38.5
15 | CCOC(=O)C1=C(C)Nc2[nH]ncc2C1c1ccc(OC)cc1OCc1ccccc1 (centres unmarked) [PT-445, ethyl 4-(2-(benzyloxy)-4-methoxyphenyl)-6-methyl-4,7-dihydro-1H-pyrazolo[3,4-b]pyridine-5-carboxylate] | 10.5 | 50
16 | CCOC(=O)C1=C(C)Nc2[nH]ncc2C1c1ccccc1Br (centres unmarked) [PT-448, ethyl 4-(2-bromophenyl)-6-methyl-4,7-dihydro-1H-pyrazolo[3,4-b]pyridine-5-carboxylate] | 10 | 57.5
17 | CCOC(=O)C1=C(C)Nc2nnnn2C1c1ccccc1-n1ccnc1C.Cl (centres unmarked) [PT-457, ethyl 5-methyl-7-(2-(2-methyl-1H-imidazol-1-yl)phenyl)-4,7-dihydrotetrazolo[1,5-a]pyrimidine-6-carboxylate hydrochloride] | 10 | 21
18 | CCOC(=O)C1=C(C)Nc2nnnn2C1c1cccc(Oc2ccccc2)c1 (centres unmarked) [PT-464, ethyl 5-methyl-7-(3-phenoxyphenyl)-4,7-dihydrotetrazolo[1,5-a]pyrimidine-6-carboxylate] | 11 | 55
19 | CCOC(=O)C1=C(C)Nc2nnnn2C1c1ccccc1-n1ccnc1.Cl (centres unmarked) [PT-476, ethyl 7-(2-(1H-imidazol-1-yl)phenyl)-5-methyl-4,7-dihydrotetrazolo[1,5-a]pyrimidine-6-carboxylate hydrochloride] | 17.5 | 23
20 | CCOC(=O)C1=C(C)Nc2nnnn2C1c1ccccc1-n1cccn1.Cl (centres unmarked) [PT-477, ethyl 7-(2-(1H-pyrazol-1-yl)phenyl)-5-methyl-4,7-dihydrotetrazolo[1,5-a]pyrimidine-6-carboxylate hydrochloride] | 12 | 44
21 | CCOC(=O)C1=C(C)Nc2nnnn2C1c1ccccc1-c1cccc(-c2nnn[nH]2)c1 (centres unmarked) [PT-493, ethyl 7-(3′-(1H-tetrazol-5-yl)biphenyl-2-yl)-5-methyl-4,7-dihydrotetrazolo[1,5-a]pyrimidine-6-carboxylate] | 10 | 10
22 | COC(=O)C1=C(C)Nc2nnnn2C1c1cccc2ccccc12 (centres unmarked) [PT-512, methyl 5-methyl-7-(naphthalen-1-yl)-4,7-dihydrotetrazolo[1,5-a]pyrimidine-6-carboxylate] | 10.5 | 14
